In this assay the test system is Multidrug resistant Acinetobacter Baumannii, (MRAB). In words: microbe, parasite or virus in culture.

Structures are written as SMILES. Where two headings read alike, the source gives them in different places.

In the case of `NCC[C@H](O)C(=O)N[C@@H]1C[C@H](N)[C@@H](O[C@H]2O[C@H](CN)[C@@H](O)[C@H](O)[C@H]2O)[C@H](O)[C@H]1O[C@H]1O[C@H](CO)[C@@H](O)[C@H](N)[C@H]1O` [AMI, Amikacin], the viability at 4 µg/mL turned out to be 35.9% (read-out: % bacterial viability, MRAB 1 014754 Urine, AMI 4 μg/ml); 36% (read-out: % bacterial viability, MRAB 2 014801 Catheter, AMI 4 μg/ml); 66.6% (read-out: % bacterial viability, MRAB 3 015069 Skin, AMI 4 μg/ml); 66.4% (read-out: % bacterial viability, MRAB 4 015095 Hospital Environ, AMI 4 μg/ml); 65.2% (read-out: % bacterial viability, MRAB 5 015103 Hospital Environ, AMI 4 μg/ml); 49.7% (read-out: % bacterial viability, MRAB 12 016419 Catheter, AMI 4 μg/ml). Besides, the viability at 12 µg/mL (read-out: % bacterial viability, MRAB 1 014754 Urine, AMI 12 μg/ml) worked out at 24.5%; the viability at 12 µg/mL (read-out: % bacterial viability, MRAB 2 014801 Catheter, AMI 12 μg/ml) was determined as 14.1%; the viability at 12 µg/mL (read-out: % bacterial viability, MRAB 3 015069 Skin, AMI 12 μg/ml) was 48.6%; the viability at 12 µg/mL (read-out: % bacterial viability, MRAB 4 015095 Hospital Environ, AMI 12 μg/ml) turned out to be 42.9%; the viability at 12 µg/mL (read-out: % bacterial viability, MRAB 5 015103 Hospital Environ, AMI 12 μg/ml) was determined as 26.9%; the viability at 12 µg/mL (read-out: % bacterial viability, MRAB 12 016419 Catheter, AMI 12 μg/ml) stood at 22.7%. For the same molecule, the viability at 20 µg/mL stood at 14.7% (read-out: % bacterial viability, MRAB 1 014754 Urine, AMI 20 μg/ml); 8.36% (read-out: % bacterial viability, MRAB 2 014801 Catheter, AMI 20 μg/ml); 41.7% (read-out: % bacterial viability, MRAB 3 015069 Skin, AMI 20 μg/ml); 33.9% (read-out: % bacterial viability, MRAB 4 015095 Hospital Environ, AMI 20 μg/ml); 24.6% (read-out: % bacterial viability, MRAB 5 015103 Hospital Environ, AMI 20 μg/ml); 19.8% (read-out: % bacterial viability, MRAB 12 016419 Catheter, AMI 20 μg/ml).

Source of the values: US20200016231A1, “BIOFILM DISRUPTING COMPOSITION” (Whiteley Corporation Pty Ltd, priority 2016, published 2020).
